Measured values from patent US11753397B2, “Cereblon binders for the degradation of ikaros” (C4 Therapeutics, Inc., priority 2018, dated 2023).

System: NCIH929.1 cells
Experiment: Cell viability assay (CellTiter-Glo 2.0, ATP quantification)
Format: cell-based
Settings: NCIH929.1 cell viability, CellTiter-Glo 2.0, 96 hr incubation, top concentration 1 μM
Description: Example 59. Cell Viability Assay
RPMI 1640 medium, fetal bovine serum (FBS) and 2-mercaptoethanol were purchased from Gibco (Grand Island, N.Y., USA). CellTiter-Glo® 2.0 Assay was purchased from Promega (Madison, Wis., USA). NCIH929.1 cell line was purchased from ATCC (Manassas, Va., USA). Cell culture flasks and 384-well microplates were acquired from VWR (Radnor, Pa., USA).
NCIH929.1 cell viability was determined based on quantification of ATP using CellTiter-Glo® 2.0 luminescent Assay kit, which signals the presence of metabolically-active cells. Briefly, the test compound was added to 384-well plates at a top concentration of 1 μM with 10 points, half log titration in duplicates. NCIH929.1 cells were seeded into the 384-well plates in RPMI medium containing 10% FBS and 0.05 mM 2-mercaptoethanol at a cell density of 750 cells per well. Cells treated in the absence of the test compound were the negative control and cells treated in the absence of CellTiter-Glo® 2.0 were the positive control. At the same day of compound treatment, CellTiter-Glo® 2.0 was added to a plate with cells treated in the absence of the test compound to establish Cytostatic control value (CT0). Cells treated with the test compound were incubated at 37° C. with 5% CO2 for 96 hr. CellTiter-Glo reagent was then added to the cells and luminescence was acquired on EnVision™ Multilabel Reader (PerkinElmer, Santa Clara, Calif., USA).

With `CC(C(=O)N1CCC(n2cc(CNc3cccc4c3C(=O)N(C3CCC(=O)NC3=O)C4=O)cn2)CC1)(C(F)(F)F)C(F)(F)F` (stereo not drawn) [Compound 56, 2-(2,6-dioxopiperidin-3-yl)-4-(((1-(1-(3,3,3-trifluoro-2-methyl-2-(trifluoromethyl)propanoyl)piperidin-4-yl)-1H-pyrazol-4-yl)methyl)amino)isoindoline-1,3-dione] as the compound, how does the GI50 read?
Its GI50 is < 100 nM.

For `O=C1CCC(N2C(=O)c3cccc(NCc4cnn(C5CCN(C(=O)[C@@H]6CCCO6)CC5)c4)c3C2=O)C(=O)N1` (stereo partly drawn) [Compound 59, 2-(2,6-dioxopiperidin-3-yl)-4-(((1-(1-((S)-tetrahydrofuran-2-carbonyl)piperidin-4-yl)-1H-pyrazol-4-yl)methyl)amino)isoindoline-1,3-dione], which GI50 is on record?
Its GI50 is < 100 nM.

With `O=C1CCC(N2C(=O)c3cccc(NCc4cnn(C5CCN(C(=O)C6(C(F)(F)F)CC6)CC5)c4)c3C2=O)C(=O)N1` (stereo not drawn) [Compound 60, 2-(2,6-dioxopiperidin-3-yl)-4-(((1-(1-(1-(trifluoromethyl)cyclopropane-1-carbonyl)piperidin-4-yl)-1H-pyrazol-4-yl)methyl)amino)isoindoline-1,3-dione] as the compound, how does the GI50 read?
The GI50 was < 100 nM.

For `CC1(C(=O)N2CCC(n3cc(CNc4cccc5c4C(=O)N(C4CCC(=O)NC4=O)C5=O)cn3)CC2)COC1` (stereo not drawn) [Compound 61, 2-(2,6-dioxopiperidin-3-yl)-4-(((1-(1-(3-methyloxetane-3-carbonyl)piperidin-4-yl)-1H-pyrazol-4-yl)methyl)amino)isoindoline-1,3-dione], which GI50 is on record?
The GI50 was < 100 nM.

`CC1(C(=O)N2CCC(n3cc(CNc4cccc5c4C(=O)N(C4CCC(=O)NC4=O)C5=O)cn3)CC2)CCCC1` (stereo not drawn) [Compound 62, 2-(2,6-dioxopiperidin-3-yl)-4-(((1-(1-(1-methylcyclopentane-1-carbonyl)piperidin-4-yl)-1H-pyrazol-4-yl)methyl)amino)isoindoline-1,3-dione] was tested. Which GI50 did it give?
Its GI50 is < 1 nM.

With `CC1(C(=O)N2CCC(n3cc(CNc4cccc5c4C(=O)N(C4CCC(=O)NC4=O)C5=O)cn3)CC2)CCCCC1` (stereo not drawn) [Compound 63, 2-(2,6-dioxopiperidin-3-yl)-4-(((1-(1-(1-methylcyclohexane-1-carbonyl)piperidin-4-yl)-1H-pyrazol-4-yl)methyl)amino)isoindoline-1,3-dione] as the compound, how does the GI50 read?
Its GI50 is < 1 nM.

For `CC1(C(=O)N2CCC(n3cc(CNc4cccc5c4C(=O)N(C4CCC(=O)NC4=O)C5=O)cn3)CC2)CCOCC1` (stereo not drawn) [Compound 64, 2-(2,6-dioxopiperidin-3-yl)-4-(((1-(1-(4-methyltetrahydro-2H-pyran-4-carbonyl)piperidin-4-yl)-1H-pyrazol-4-yl)methyl)amino)isoindoline-1,3-dione], which GI50 is on record?
The GI50 was < 100 nM.

How did the GI50 turn out when `CC(C)(C)OC(=O)N1CCC(n2cc(CNc3cccc4c3C(=O)N(C3CCC(=O)NC3=O)C4=O)cn2)CC1` (stereo not drawn) [Compound 66, tert-butyl 4-(4-(((2-(2,6-dioxopiperidin-3-yl)-1,3-dioxoisoindolin-4-yl)amino)methyl)-1H-pyrazol-1-yl)piperidine-1-carboxylate] was run?
The GI50 was < 100 nM.

Which GI50 does the source give for `O=C1CCC(N2C(=O)c3cccc(NCc4cnn(C5CCN(C(=O)C6(c7ccc(F)cc7)CCCCC6)CC5)c4)c3C2=O)C(=O)N1` (stereo not drawn) [Compound 68, 2-(2,6-dioxopiperidin-3-yl)-4-(((1-(1-(1-(4-fluorophenyl)cyclohexane-1-carbonyl)piperidin-4-yl)-1H-pyrazol-4-yl)methyl)amino)isoindoline-1,3-dione] here?
Its GI50 is < 100 nM.

How did the GI50 turn out when `O=C1CCC(N2C(=O)c3cccc(NCc4cnn(C5CCN(C(=O)C6(c7ccccc7)COC6)CC5)c4)c3C2=O)C(=O)N1` (stereo not drawn) [Compound 69, 2-(2,6-dioxopiperidin-3-yl)-4-(((1-(1-(3-phenyloxetane-3-carbonyl)piperidin-4-yl)-1H-pyrazol-4-yl)methyl)amino)isoindoline-1,3-dione] was run?
The GI50 was < 100 nM.

Which GI50 does the source give for `O=C1CCC(N2C(=O)c3cccc(NCc4cnn(C5CCN(C(=O)C6(c7ccc(F)cc7)CCC6)CC5)c4)c3C2=O)C(=O)N1` (stereo not drawn) [Compound 70, 2-(2,6-dioxopiperiidn-3-yl)-4-(((1-(1-(1-(4-fluorophenyl)cyclobutane-1-carbonyl)piperidin-4-yl)-1H-pyrazol-4-yl)methyl)amino)isoindoline-1,3-dione] here?
Its GI50 is < 1 nM.

Which GI50 does the source give for `O=C1CCC(N2C(=O)c3cccc(NCc4cnn(C5CCN(C(=O)C6(Cc7ccccc7)CC6)CC5)c4)c3C2=O)C(=O)N1` (stereo not drawn) [Compound 71, 4-(((1-(1-(1-benzylcyclopropane-1-carbonyl)piperidin-4-yl)-1H-pyrazol-4-yl)methyl)amino)-2-(2,6-dioxopiperidin-3-yl)isoindoline-1,3-dione] here?
Its GI50 is < 100 nM.

With `O=C1CCC(N2C(=O)c3cccc(NCc4cnn(C5CCN(C(=O)C6(c7ccccc7)CC6)CC5)c4)c3C2=O)C(=O)N1` (stereo not drawn) [Compound 72, 2-(2,6-dioxopiperidin-3-yl)-4-(((1-(1-(1-phenylcyclopropane-1-carbonyl)piperidin-4-yl)-1H-pyrazol-4-yl)methyl)amino)isoindoline-1,3-dione] as the compound, how does the GI50 read?
Its GI50 is < 100 nM.

For `CC(C)(C(=O)N1CCC(n2cc(CNc3cccc4c3C(=O)N(C3CCC(=O)NC3=O)C4=O)cn2)CC1)C(F)(F)F` (stereo not drawn) [Compound 73, 2-(2,6-dioxopiperidin-3-yl)-4-(((1-(1-(3,3,3-trifluoro-2,2-dimethylpropanoyl)piperidin-4-yl)-1H-pyrazol-4-yl)methyl)amino)isoindoline-1,3-dione], which GI50 is on record?
The GI50 was < 100 nM.

`CC1(C(=O)N2CCC(n3cc(CNc4cccc5c4C(=O)N(C4CCC(=O)NC4=O)C5=O)cn3)CC2)CC(F)(F)C1` (stereo not drawn) [Compound 74, 4-(((1-(1-(3,3-difluoro-1-methylcyclobutane-1-carbonyl)piperidin-4-yl)-1H-pyrazol-4-yl)methyl)amino)-2-(2,6-dioxopiperidin-3-yl)isoindoline-1,3-dione] was tested. Which GI50 did it give?
Its GI50 is < 100 nM.

With `O=C1CCC(N2C(=O)c3cccc(NCc4cnn(C5CCN(C(=O)C6(C(F)(F)F)CCC6)CC5)c4)c3C2=O)C(=O)N1` (stereo not drawn) [Compound 75, 2-(2,6-dioxopiperidin-3-yl)-4-(((1-(1-(1-(trifluoromethyl)cyclobutane-1-carbonyl)piperidin-4-yl)-1H-pyrazol-4-yl)methyl)amino)isoindoline-1,3-dione] as the compound, how does the GI50 read?
The GI50 was < 1 nM.

Which GI50 does the source give for `O=C1CCC(N2C(=O)c3cccc(NCc4cnn(C5CCN(C(=O)C6(c7ccc(F)cc7)CCCC6)CC5)c4)c3C2=O)C(=O)N1` (stereo not drawn) [Compound 77, 2-(2,6-dioxopiperidin-3-yl)-4-(((1-(1-(1-(4-fluorophenyl)cyclopentane-1-carbonyl)piperidin-4-yl)-1H-pyrazol-4-yl)methyl)amino)isoindoline-1,3-dione] here?
The GI50 was < 1 nM.

Which GI50 does the source give for `O=C1CCC(N2C(=O)c3cccc(NCc4cnn(C5CCN(C(=O)C67CC(F)(C6)C7)CC5)c4)c3C2=O)C(=O)N1` (stereo not drawn) [Compound 78, 2-(2,6-dioxopiperidin-3-yl)-4-(((1-(1-(3-fluorobicyclo[1.1.1]pentane-1-carbonyl)piperidin-4-yl)-1H-pyrazol-4-yl)methyl)amino)isoindoline-1,3-dione] here?
The GI50 was < 100 nM.

How did the GI50 turn out when `O=C1CCC(N2C(=O)c3cccc(NCc4cnn(C5CCN(C(=O)C6(F)CCC6)CC5)c4)c3C2=O)C(=O)N1` (stereo not drawn) [Compound 79, 2-(2,6-dioxopiperidin-3-yl)-4-(((1-(1-(1-fluorocyclobutane-1-carbonyl)piperidin-4-yl)-1H-pyrazol-4-yl)methyl)amino)isoindoline-1,3-dione] was run?
Its GI50 is < 100 nM.

With `N#CC1(C(=O)N2CCC(n3cc(CNc4cccc5c4C(=O)N(C4CCC(=O)NC4=O)C5=O)cn3)CC2)CCC1` (stereo not drawn) [Compound 81, 1-(4-(4-(((2-(2,6-dioxopiperidin-3-yl)-1,3-dioxoisoindolin-4-yl)amino)methyl)-1H-pyrazol-1-yl)piperidine-1-carbonyl)cyclobutane-1-carbonitrile] as the compound, how does the GI50 read?
The GI50 was < 100 nM.

Which GI50 does the source give for `COC1(C(=O)N2CCC(n3cc(CNc4cccc5c4C(=O)N(C4CCC(=O)NC4=O)C5=O)cn3)CC2)CCC1` (stereo not drawn) [Compound 82, 2-(2,6-dioxopiperidin-3-yl)-4-(((1-(1-(1-methoxycyclobutane-1-carbonyl)piperidin-4-yl)-1H-pyrazol-4-yl)methyl)amino)isoindoline-1,3-dione] here?
Its GI50 is < 100 nM.

`O=C1CCC(N2C(=O)c3cccc(NCc4cnn(C5CCN(C(=O)C(F)(F)C(F)(F)F)CC5)c4)c3C2=O)C(=O)N1` (stereo not drawn) [Compound 83, 2-(2,6-dioxopiperidin-3-yl)-4-(((1-(1-(2,2,3,3,3-pentafluoropropanoyl)piperidin-4-yl)-1H-pyrazol-4-yl)methyl)amino)isoindoline-1,3-dione] was tested. Which GI50 did it give?
The GI50 was < 100 nM.

Which GI50 does the source give for `O=C1CCC(N2C(=O)c3cccc(NCc4cnn(C5CCN(C(=O)C6(O)CCC6)CC5)c4)c3C2=O)C(=O)N1` (stereo not drawn) [Compound 84, 2-(2,6-dioxopiperidin-3-yl)-4-(((1-(1-(1-hydroxycyclobutane-1-carbonyl)piperidin-4-yl)-1H-pyrazol-4-yl)methyl)amino)isoindoline-1,3-dione] here?
The GI50 was < 100 nM.

With `CC12CC(C(=O)N3CCC(n4cc(CNc5cccc6c5C(=O)N(C5CCC(=O)NC5=O)C6=O)cn4)CC3)(C1)C2` (stereo not drawn) [Compound 85, 2-(2,6-dioxopiperidin-3-yl)-4-(((1-(1-(3-methylbicyclo[1.1.1]pentane-1-carbonyl)piperidin-4-yl)-1H-pyrazol-4-yl)methyl)amino)isoindoline-1,3-dione] as the compound, how does the GI50 read?
Its GI50 is < 100 nM.
